From US5041567A, “Antibacterial monic acid derivatives” (Beecham Group plc, priority 1982, dated 1991)
Values after ≈ are worked out from the molar mass of the structure shown. Like-named read-outs stand apart in the source and are kept apart here.

Tests used:
[1] = test system: Strep. uberis SPU1; experiment: MIC against veterinary bacteria in vitro; conditions: Streptococcus uberis, SPU1, 18 h
Method: (§1) The activity of the compounds of the Examples against various veterinarily important bacteria, was assayed in vitro using two-fold serial dilutions in Diagnostic Sensitivity Test Agar inoculated with 10^4 organisms.

[2] = test system: M. suipneumoniae MS 16; experiment: MIC against mycoplasma in vitro; format: cell-based; conditions: Mesomycoplasma hyopneumoniae, MS16, 144 h
[3] = test system: Strep. faecalis I; experiment: MIC against human bacteria in vitro; format: cell-based; conditions: Enterococcus faecalis; Strep. faecalis I; 5% chocolated horse blood agar, 18 hours; read-out: MIC
[4] = test system: Corynebacterium xerosis 9755; experiment: MIC against human bacteria in vitro; format: cell-based; conditions: Corynebacterium xerosis 9755; 5% chocolated horse blood agar, 18 hours; read-out: MIC
[5] = test system: Staph. aureus 152 (pen. sens); experiment: MIC against veterinary bacteria in vitro; conditions: Staphylococcus aureus, 18 h
Method: as §1

[6] = test system: Staph. aureus Russell; experiment: MIC against human bacteria in vitro; format: cell-based; conditions: Staphylococcus aureus; Staph. aureus Russell; 5% chocolated horse blood agar, 18 hours; read-out: MIC
[7] = test system: Bacillus subtilis 6633; experiment: MIC against human bacteria in vitro; format: cell-based; conditions: Bacillus subtilis 6633; 5% chocolated horse blood agar, 18 hours; read-out: MIC
[8] = test system: Erysipelothrix rhusiopathiae NCTC 8163; experiment: MIC against veterinary bacteria in vitro; conditions: Erysipelothrix rhusiopathiae, NCTC8163, 18 h
Method: as §1

[9] = test system: Corynebacterium pyogenes CY1; experiment: MIC against veterinary bacteria in vitro; conditions: CY1, 18 h
Method: as §1

[10] = test system: S. dublin S7; experiment: MIC against veterinary bacteria in vitro; conditions: Salmonella enterica, S7, 18 h
Method: as §1

[11] = test system: M. hyorhinis ATCC 23234; experiment: MIC against mycoplasma in vitro; format: cell-based; conditions: Mesomycoplasma hyorhinis, ATCC23234, 144 h
[12] = test system: M. suipneumoniae TAM 6N; experiment: MIC against mycoplasma in vitro; format: cell-based; conditions: Mesomycoplasma hyopneumoniae, TAM6N, 144 h
[13] = test system: M. hyorhinis ATCC 25021; experiment: MIC against mycoplasma in vitro; format: cell-based; conditions: Mesomycoplasma hyorhinis, ATCC25021, 144 h
[14] = test system: E. coli ESS; experiment: MIC against human bacteria in vitro; format: cell-based; conditions: Escherichia coli; E. coli ESS; 5% chocolated horse blood agar, 18 hours; read-out: MIC
[15] = test system: Strep. dysgalactiae SPD1; experiment: MIC against veterinary bacteria in vitro; conditions: Streptococcus dysgalactiae, SPD1, 18 h
Method: as §1

[16] = test system: M. suipneumoniae HK(2); experiment: MIC against mycoplasma in vitro; format: cell-based; conditions: Mesomycoplasma hyopneumoniae, 144 h
[17] = test system: Strep. pneumoniae CN33; experiment: MIC against human bacteria in vitro; format: cell-based; conditions: Streptococcus pneumoniae; Strep. pneumoniae CN33; 5% chocolated horse blood agar, 18 hours; read-out: MIC
[18] = test system: Strep. spp. 64/848-C; experiment: MIC against human bacteria in vitro; format: cell-based; conditions: Strep. spp. 64/848-C; 5% chocolated horse blood agar, 18 hours; read-out: MIC
[19] = test system: M. suipneumoniae Str. 11; experiment: MIC against mycoplasma in vitro; format: cell-based; conditions: Mesomycoplasma hyopneumoniae
[20] = test system: Haemophilus influenzae Wy21; experiment: MIC against human bacteria in vitro; format: cell-based; conditions: Haemophilus influenzae Wy21; 5% chocolated horse blood agar, 18 hours; read-out: MIC
[21] = test system: K. aerogenes A; experiment: MIC against human bacteria in vitro; format: cell-based; conditions: Klebsiella aerogenes; K. aerogenes A; 5% chocolated horse blood agar, 18 hours; read-out: MIC
[22] = test system: Strep. agalactiae 2788-B; experiment: MIC against human bacteria in vitro; format: cell-based; conditions: Streptococcus agalactiae; Strep. agalactiae 2788-B; 5% chocolated horse blood agar, 18 hours; read-out: MIC
[23] = test system: Past. multocida PA2; experiment: MIC against veterinary bacteria in vitro; conditions: Pasteurella multocida, PA2, 18 h
Method: as §1

[24] = test system: Staph. aureus Oxford; experiment: MIC against veterinary bacteria in vitro; conditions: Staphylococcus aureus, 18 h
Method: as §1

[25] = test system: Sarcina lutea 8340; experiment: MIC against human bacteria in vitro; format: cell-based; conditions: Micrococcus luteus; Sarcina lutea 8340; 5% chocolated horse blood agar, 18 hours; read-out: MIC
[26] = test system: E. coli NCTC 10418; experiment: MIC against human bacteria in vitro; format: cell-based; conditions: Escherichia coli, NCTC10418; E. coli NCTC 10418; agar with 5% chocolated horse blood, 18 hours, 37° C.; read-out: MIC
[27] = test system: Strep. pyogenes R80/421-A; experiment: MIC against human bacteria in vitro; format: cell-based; conditions: Streptococcus pyogenes; Strep. pyogenes R80/421-A; 5% chocolated horse blood agar, 18 hours; read-out: MIC
[28] = test system: Staph. aureus W2827; experiment: MIC against human bacteria in vitro; format: cell-based; conditions: Staphylococcus aureus; Staph. aureus W2827; 5% chocolated horse blood agar, 18 hours; read-out: MIC
[29] = test system: Neisseria catarrhalis 1502; experiment: MIC against human bacteria in vitro; format: cell-based; conditions: Neisseria catarrhalis 1502; 5% chocolated horse blood agar, 18 hours; read-out: MIC
[30] = test system: M. suipneumoniae ATCC 25095; experiment: MIC against mycoplasma in vitro; format: cell-based; conditions: Mesomycoplasma hyopneumoniae, ATCC25095, 144 h
[31] = test system: M. suipneumoniae LABER; experiment: MIC against mycoplasma in vitro; format: cell-based; conditions: Mesomycoplasma hyopneumoniae, 144 h
[32] = test system: S. typhimurium S18; experiment: MIC against veterinary bacteria in vitro; conditions: Salmonella enterica, TYPHIMURIUM, 18 h
Method: as §1

[33] = test system: M. bovigenitalium ATCC 14173; experiment: MIC against mycoplasma in vitro; format: cell-based; conditions: 144 h
[34] = test system: M. suipneumoniae NB12; experiment: MIC against mycoplasma in vitro; format: cell-based; conditions: Mesomycoplasma hyopneumoniae
[35] = test system: Ps. aeruginosa NCTC 10662; experiment: MIC against human bacteria in vitro; format: cell-based; conditions: Pseudomonas aeruginosa, NCTC10662; Ps. aeruginosa NCTC 10662; 5% chocolated horse blood agar, 18 hours; read-out: MIC

Compound | MIC [1] | MIC [3] | MIC [4] | MIC [5] | MIC [6] | MIC [7] | MIC [8] | MIC [9] | MIC [10] | MIC [14] | MIC [15] | MIC [17] | MIC [18] | MIC [20] | MIC [21] | MIC [22] | MIC [23] | MIC [24] | MIC [25] | MIC [26] | further results
C/C(=C\c1ncc(-c2ccc([N+](=O)[O-])cc2)o1)C[C@@H]1OC[C@H](C[C@@H]2O[C@H]2[C@@H](C)[C@H](C)O)[C@@H](O)[C@H]1O [Example 3, 5-p-nitro-phenyl-2-(1-normon-2-yl)-oxazole A] | 0.039 µg/mL (≈ 0.0798 µM) | 50 µg/mL (≈ 102 µM) | > 100 µg/mL | 0.312 µg/mL (≈ 0.639 µM) | 5 µg/mL (≈ 10.2 µM) | 0.5 µg/mL (≈ 1.02 µM) | > 80 µg/mL | 80 µg/mL (≈ 164 µM) | > 80 µg/mL | 0.5 µg/mL (≈ 1.02 µM) | 0.312 µg/mL (≈ 0.639 µM) | 0.5 µg/mL (≈ 1.02 µM) | 0.5 µg/mL (≈ 1.02 µM) | 0.1 µg/mL (≈ 0.205 µM) | 100 µg/mL (≈ 205 µM) | 0.5 µg/mL (≈ 1.02 µM) | 0.625 µg/mL (≈ 1.28 µM) | 0.312 µg/mL (≈ 0.639 µM) | > 100 µg/mL | > 100 µg/mL | MIC ([2]; M. suipneumoniae MS 16, 6 days, 37° C., read-out: MIC): 0.05 µg/mL (≈ 0.102 µM); MIC ([11]; M. hyorhinis ATCC 23234, 6 days, 37° C., read-out: MIC): 0.1 µg/mL (≈ 0.205 µM); MIC ([12]; M. suipneumoniae TAM 6N, 6 days, 37° C., read-out: MIC): 0.25 µg/mL (≈ 0.512 µM); MIC ([13]; M. hyorhinis ATCC 25021, 6 days, 37° C., read-out: MIC): 0.05 µg/mL (≈ 0.102 µM); MIC ([16]; M. suipneumoniae HK(2), 6 days, 37° C., read-out: MIC): 0.25 µg/mL (≈ 0.512 µM); MIC ([19]; 144 h, M. suipneumoniae Str. 11, 6 days, 37° C., read-out: MIC): 0.1 µg/mL (≈ 0.205 µM); MIC [27]: 0.5 µg/mL (≈ 1.02 µM); MIC [28]: 1 µg/mL (≈ 2.05 µM); MIC [29]: 0.5 µg/mL (≈ 1.02 µM); MIC ([30]; M. suipneumoniae ATCC 25095, 6 days, 37° C., read-out: MIC): 0.1 µg/mL (≈ 0.205 µM); MIC ([31]; M. suipneumoniae LABER, 6 days, 37° C., read-out: MIC): 0.1 µg/mL (≈ 0.205 µM); MIC [32]: > 80 µg/mL; MIC ([33]; M. bovigenitalium ATCC 14173, 6 days, 37° C., read-out: MIC): 0.05 µg/mL (≈ 0.102 µM); MIC ([34]; 144 h, M. suipneumoniae NB12, Friis broth, 0.9% agarose, 6 days, 37° C., read-out: MIC): 0.1 µg/mL (≈ 0.205 µM); MIC [35]: > 100 µg/mL
COc1ccc(-c2cnc(/C=C(\C)C[C@@H]3OC[C@H](C[C@@H]4O[C@H]4[C@@H](C)[C@H](C)O)[C@@H](O)[C@H]3O)o2)cc1 [Example 4, 5-p-methoxyphenyl-2-(1-normon-2-yl)oxazole A] | 0.312 µg/mL (≈ 0.659 µM) | > 100 µg/mL | > 100 µg/mL | 5 µg/mL (≈ 10.6 µM) | 5 µg/mL (≈ 10.6 µM) | 5 µg/mL (≈ 10.6 µM) | > 80 µg/mL | > 80 µg/mL | > 80 µg/mL | 2.5 µg/mL (≈ 5.28 µM) | 1.25 µg/mL (≈ 2.64 µM) | 5 µg/mL (≈ 10.6 µM) | 5 µg/mL (≈ 10.6 µM) | 2.5 µg/mL (≈ 5.28 µM) | > 100 µg/mL | 5 µg/mL (≈ 10.6 µM) | 5 µg/mL (≈ 10.6 µM) | 0.625 µg/mL (≈ 1.32 µM) | > 100 µg/mL | > 100 µg/mL | MIC [2]: 0.5 µg/mL (≈ 1.06 µM); MIC [11]: 0.5 µg/mL (≈ 1.06 µM); MIC [12]: 1 µg/mL (≈ 2.11 µM); MIC [13]: 0.5 µg/mL (≈ 1.06 µM); MIC [16]: 1 µg/mL (≈ 2.11 µM); MIC ([19]; STR.11, 144 h): 0.5 µg/mL (≈ 1.06 µM); MIC [27]: 5 µg/mL (≈ 10.6 µM); MIC [28]: 5 µg/mL (≈ 10.6 µM); MIC [29]: 10 µg/mL (≈ 21.1 µM); MIC [30]: 0.5 µg/mL (≈ 1.06 µM); MIC [31]: 0.5 µg/mL (≈ 1.06 µM); MIC [32]: > 80 µg/mL; MIC [33]: 0.05 µg/mL (≈ 0.106 µM); MIC ([34]; NB12, 144 h): 0.5 µg/mL (≈ 1.06 µM); MIC [35]: > 100 µg/mL
